According to US20240366567A1, “PHARMACEUTICAL COMBINATIONS COMPRISING A KRAS G12C INHIBITOR AND USES THEREOF FOR THE TREATMENT OF CANCERS” (NOVARTIS AG, priority 2021, published 2024):
Where two headings read alike, the source gives them in different places.

How the values were obtained:
[1] = KontRASt-01 (NCT04699188) clinical pharmacokinetics; assay type: in vivo, human
Protocol: FIG. 15: PK and target occupancy profiles of JDQ443 RD 200 mg BID. […] Error bars indicate standard deviation for PK profile at each timepoint. […]

KRAS G12C_Y96D (GDP) = target: T1, KRAS G12C_Y96D (GDP) (Homo sapiens, UniProt P01116, G12C/Y96D); experiment: Covalent rate constants by RapidFire MS; assay type: binding; settings: n=3
T1 construct: the cDNA encoding KRAS, NRAS, and HRAS comprised aa 1-169; made in house; host or cells: E. coli BL21(DE3)
Protocol: (§1) The E. coli expression constructs used in this study were based on the pET system and generated using standard molecular cloning techniques. […] Point mutations were introduced with the QuikChange Lightning Site-Directed Mutagenesis kit (Agilent). All final expression constructs were sequence verified by Sanger sequencing.
(§2) Cell pellets were resuspended in buffer A (20 mM Tris, 500 mM NaCl, 5 mM imidazole, 2 mM TCEP, 10% glycerol, pH 8.0) supplemented with Turbonuclease (Merck) and cOmplete protease inhibitor tablets (Roche). The cells were lysed by three passages through a homogenizer (Avestin) at 800-1000 bar and the lysate clarified by centrifugation at 40000 g for 40 min. The lysate was loaded onto a HisTrap HP 5 ml column (Cytiva) mounted on an AKTA Pure 25 chromatography system (Cytiva). Contaminating proteins were washed away with buffer A and bound protein was eluted with a linear gradient to buffer B (buffer A supplemented with 200 mM imidazole). During dialysis O/N the N-terminal His affinity purification tags on the non-tagged and avi-tagged proteins were cleaved off by TEV or HRV3C protease, respectively. The protein solution was re-loaded onto a HisTrap column and the flow through containing the target protein collected.
(§3) Guanosine 5′-diphosphate sodium salt (GDP, Sigma) or GppNHp-Tetralithium salt (Jena Bioscience) was added to a 24-32× molar excess over protein. […] After 1 hour at room temperature the buffer was exchanged on a PD-10 desalting column (Cytiva) against 40 mM Tris, 200 mM (NH4)2SO4, 0.1 mM ZnCl2, pH 8.0. […] 40 U Shrimp Alkaline Phosphatase (New England Biolabs) was added to GppNHp containing samples only. The sample was then incubated for 1 hour at 5° C. Finally, MgCl2 was added to a concentration of about 30 mM. […] The purity and concentration of the protein was determined by RP-HPLC, its identity was confirmed by LC-MS.
(§4) Reactions were stopped at different time points by addition of formic acid to 1%. […] In parallel, compound solubility was assessed by nephelometry and compound concentrations resulting in measurable turbidity were excluded from curve fitting. […]

KRAS G12C_H95Q (GDP) = target: T2, KRAS G12C_H95Q (GDP) (Homo sapiens, UniProt P01116, G12C/H95Q); experiment: Covalent rate constants by RapidFire MS; assay type: binding; settings: n=2
T2 construct: the cDNA encoding KRAS, NRAS, and HRAS comprised aa 1-169; made in house; host or cells: E. coli BL21(DE3)
Protocol: as §1, §2, §3, §4

KRAS G12C_Y96C (GDP) = target: T3, KRAS G12C_Y96C (GDP) (Homo sapiens, UniProt P01116, G12C/Y96C); experiment: Covalent rate constants by RapidFire MS; assay type: binding; settings: n=2
T3 construct: the cDNA encoding KRAS, NRAS, and HRAS comprised aa 1-169; made in house; host or cells: E. coli BL21(DE3)
Protocol: as §1, §2, §3, §4

[2] = tested on: human KRAS G12C-mutated CRC PDX models; experiment: CRC patient-derived xenograft (PDX) panel; assay type: in vivo, nude mice; settings: Compound A alone, 100 mg/kg QD oral
Protocol: The antitumor efficacy of JDQ443±inhibitors of RAS-upstream or RAS-downstream signaling was evaluated in PDX panels of human KRAS G12C-mutated NSCLC and CRC.
Patient-derived xenograft (PDX) models of human NSCLC and CRC were established by direct implantation of patient NSCLC or CRC tumor tissue subcutaneously into nude mice. PDX models were maintained through in vivo serial passaging.
A cohort of mice was implanted subcutaneously with tumor fragments from each PDX model (typically passages 4-9). Ten NSCLC and nine CRC PDX models were used. Each model is named with a code, e.g. 30580-HX, 30581-HX etc, for identification and tracking purposes. Individual mice were assigned to treatment groups or control groups for dosing once their tumor volume reached 200-250 mm^3 (T=0, on the x-axis of the spider plots). One animal per PDX model was assigned to each treatment arm. Once enrolled into treatment arms, tumor volumes were measured twice weekly by caliper, and tumor volume was estimated in […] using the formula: Length×Width^2/2. The end of study per model was defined as minimum of 28 days treatment, or duration for untreated tumor to reach 1500 mm^3, or duration for 2 doublings of untreated tumor, whichever was slower.
The Raf inhibitor (LXH254 (naporafenib)) was formulated as a suspension. […]

[3] = Case 1, JDQ443 200 mg BID continuously, steady-state (cycle 1 day 14)

T1 sequence (P01116 1-169 isoform P01116-2 G12C/Y96D): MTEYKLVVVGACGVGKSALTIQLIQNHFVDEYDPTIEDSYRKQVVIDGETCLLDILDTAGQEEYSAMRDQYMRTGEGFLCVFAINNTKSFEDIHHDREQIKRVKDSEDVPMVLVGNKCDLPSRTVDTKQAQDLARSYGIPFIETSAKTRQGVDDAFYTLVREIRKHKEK
T3 sequence (P01116 1-169 isoform P01116-2 G12C/Y96C): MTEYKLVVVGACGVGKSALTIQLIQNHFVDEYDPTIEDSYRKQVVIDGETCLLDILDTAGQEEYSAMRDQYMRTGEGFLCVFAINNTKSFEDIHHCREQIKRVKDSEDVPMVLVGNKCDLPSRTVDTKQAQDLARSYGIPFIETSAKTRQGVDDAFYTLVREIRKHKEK
T2 sequence (P01116 1-169 isoform P01116-2 G12C/H95Q): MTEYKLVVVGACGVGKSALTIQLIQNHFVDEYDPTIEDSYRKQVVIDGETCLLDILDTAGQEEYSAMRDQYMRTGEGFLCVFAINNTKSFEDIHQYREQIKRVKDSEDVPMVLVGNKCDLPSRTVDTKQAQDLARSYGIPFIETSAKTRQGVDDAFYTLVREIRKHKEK

C=CC(=O)N1CC2(CC(n3nc(-c4ccc5c(cnn5C)c4)c(-c4c(Cl)c(C)cc5[nH]ncc45)c3C)C2)C1 (single isomer, unassigned) [Compound A, 1-{6-[(4M)-4-(5-Chloro-6-methyl-1H-indazol-4-yl)-5-methyl-3-(1-methyl-1H-indazol-5-yl)-1H-pyrazol-1-yl]-2-azaspiro[3.3]heptan-2-yl}prop-2-en-1-one]
accumulation at steady state ([1]; 200 mg BID, patients): No significant accumulation
auto-induction ([1]; 200 mg BID, patients): no evidence of auto-induction
steady-state area under the curve (AUCss) versus exposure required for maximum efficacy in less-sensitive KRAS G12C xenograft models ([1]; 200 mg BID, patients): more than threefold
AUC0-24 h [1, 3]: 75930 ng·h/mL
Cmax [1, 3]: 5920 ng/mL
Tmax [1, 3]: 7.8 h
Tmax ([1]; human, plasma, oral, 200 mg, 200 mg BID, following administration with food, read-out: median time to maximum plasma concentration (Tmax)): 3 to 4 h
Tmax ([1]; human, plasma, oral, 200 mg, 200 mg BID, steady state, patients, read-out: Tmax, median (min-max)): 3.2 h
half-life ([1]; human, plasma, oral, 200 mg BID, patients): ~7 h
AUC(0-t) ([1]; human, plasma, oral, 200 mg BID, steady state, patients, read-out: AUC0-12, ss, GeoMean (CV %)): 49400 ng·h/mL
Cmax ([1]; human, plasma, oral, 200 mg BID, steady state, patients, read-out: Cmax, ss, GeoMean (CV %)): 5950 ng/mL
Second order rate constant (Kinact/KI) (KRAS G12C_Y96D (GDP)): 90 M⁻¹ s⁻¹
Second order rate constant (Kinact/KI) (KRAS G12C_H95Q (GDP)): 9500 M⁻¹ s⁻¹
Second order rate constant (Kinact/KI) (KRAS G12C_Y96C (GDP)): 650 M⁻¹ s⁻¹
anti-tumor response [2]: moderate anti-tumor response in a few models
